According to the NIST ThermoML archive (doi:10.1021/je700690q):
Numbers after ± are expanded uncertainties.

Details: Liquid, Closed cell (Static) method

SMILES | vapor or sublimation pressure (364.52 K) | further results
CC(C)(C)O [2-methylpropan-2-ol] | 143.3 ± 1 kPa | –
C/C=C/C [(E)-2-butene] | 1268.7 ± 5.7 kPa [middle of 5 runs] | –
CCC(C)O (stereo unspecified) [butan-2-ol] | 75.4 ± 0.9 kPa | –
CO [methanol] | 267.6 ± 1.4 kPa | –
CCCO [propan-1-ol] | – | vapor or sublimation pressure (364.53 K): 81.2 ± 0.9 kPa
CC(C)O [propan-2-ol] | – | vapor or sublimation pressure (364.51 K): 144.1 ± 1 kPa
